# pIC50: −log10 of the molar value.
# Target: Transient receptor potential cation channel subfamily A member 1 (Homo sapiens, UniProt O75762)
# Assay: Inhibition of cinnamaldehyde-activated full length human TRPA1 channel expressed in 293T-Rex cells monitored at 5 sec interval by manual patch clamp electrophysiological method
# Assay type: cell-based
# Chain of Transient receptor potential cation channel subfamily A member 1 (O75762 whole entry): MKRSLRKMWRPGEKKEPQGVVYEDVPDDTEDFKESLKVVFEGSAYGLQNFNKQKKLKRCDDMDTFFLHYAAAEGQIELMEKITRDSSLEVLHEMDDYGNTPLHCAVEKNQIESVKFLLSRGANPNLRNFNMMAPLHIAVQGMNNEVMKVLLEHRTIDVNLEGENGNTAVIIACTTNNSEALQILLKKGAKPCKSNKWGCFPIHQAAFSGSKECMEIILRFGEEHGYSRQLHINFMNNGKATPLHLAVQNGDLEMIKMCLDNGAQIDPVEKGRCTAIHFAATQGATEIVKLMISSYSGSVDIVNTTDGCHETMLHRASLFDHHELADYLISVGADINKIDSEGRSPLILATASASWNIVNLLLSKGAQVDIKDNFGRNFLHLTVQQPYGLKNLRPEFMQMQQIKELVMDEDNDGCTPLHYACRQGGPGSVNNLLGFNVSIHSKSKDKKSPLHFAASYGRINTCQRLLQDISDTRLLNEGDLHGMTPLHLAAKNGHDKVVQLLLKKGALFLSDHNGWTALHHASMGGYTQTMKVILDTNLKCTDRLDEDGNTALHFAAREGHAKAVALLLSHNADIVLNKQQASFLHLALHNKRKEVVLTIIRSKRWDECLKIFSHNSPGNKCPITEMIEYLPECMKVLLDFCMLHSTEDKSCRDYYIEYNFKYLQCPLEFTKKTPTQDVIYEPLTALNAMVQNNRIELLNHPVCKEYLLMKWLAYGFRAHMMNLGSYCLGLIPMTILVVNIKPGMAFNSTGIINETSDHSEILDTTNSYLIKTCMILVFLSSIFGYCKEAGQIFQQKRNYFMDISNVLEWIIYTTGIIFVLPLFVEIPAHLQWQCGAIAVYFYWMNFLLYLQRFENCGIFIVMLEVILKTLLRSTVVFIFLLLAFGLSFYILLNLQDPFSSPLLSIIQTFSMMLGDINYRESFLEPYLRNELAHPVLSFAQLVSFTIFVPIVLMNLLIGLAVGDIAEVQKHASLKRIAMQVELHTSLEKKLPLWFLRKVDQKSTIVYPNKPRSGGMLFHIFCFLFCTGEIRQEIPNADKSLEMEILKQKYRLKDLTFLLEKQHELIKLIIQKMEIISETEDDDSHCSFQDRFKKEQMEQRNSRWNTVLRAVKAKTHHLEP
row,SMILES,pIC50
1,O=C(NCC(Cc1ccccc1)N1CCC(O)(C(F)(F)F)CC1)C1(c2ccc(Cl)cc2)CC1 (stereo not drawn),7.85
2,O=C(NCC(Cc1ccccc1)N1CCC(O)(C(F)(F)F)CC1)C1(c2ccc(F)cc2)CCCCC1 (stereo not drawn),8.40
3,O=C(NCC(Cc1ccc(Br)cc1)N1CCC(O)(C(F)(F)F)CC1)C1(c2ccc(Cl)cc2)CCCC1 (stereo not drawn),7.92
4,O=C(NCC(Cc1ccc(F)cc1)N1CCC(O)(C(F)(F)F)CC1)C1(c2ccc(Cl)cc2)CC1 (stereo not drawn),8.70
5,O=C(NCC(Cc1ccccc1)N1CCC(O)(C(F)(F)F)CC1)C1(c2ccc(Cl)cc2)CCCC1 (stereo not drawn),9.00
6,CC(C)(C(=O)NCC(Cc1ccccc1)N1CCC(O)(C(F)(F)F)CC1)c1ccccc1 (stereo not drawn),7.37
7,O=C(NCC(Cc1ccccc1)N1CCC(C(F)(F)F)CC1)C1(c2ccc(Cl)cc2)CCCC1 (stereo not drawn),8.15
8,N#Cc1ccc(CC(CNC(=O)C2(c3ccc(Cl)cc3)CCCC2)N2CCC(O)(C(F)(F)F)CC2)cc1 (stereo not drawn),7.20

# — ChEMBL document CHEMBL3856226, “N-(2-Alkyleneimino-3-phenylpropyl)acetamide Compounds and Their Use against Pain and Pruritus via Inhibition of TRPA1 Channels” (ACS Med Chem Lett, 2016)
